Experimental data published in ChEMBL document CHEMBL2086385, “Synthesis and antimicrobial evaluation of L-phenylalanine-derived C5-substituted rhodanine and chalcone derivatives containing thiobarbituric acid or 2-thioxo-4-thiazolidinone” (2012).
Values after ≈ are worked out from the molar mass of the structure shown.

Key:
Assay type in all cases: functional
Staphylococcus aureus [1] = test: Antibacterial activity against Staphylococcus aureus KCTC 209 after 24 hrs by broth microdilution method; conditions: KCTC 209, 24 h
Staphylococcus aureus [2] = test: Antibacterial activity against quinolone-resistant Staphylococcus aureus CCARM 3519 clinical isolate after 24 hrs by broth microdilution method; conditions: CCARM 3519, 24 h
Staphylococcus aureus [3] = test: Ratio of norfloxacin MIC to compound MIC for quinolone-resistant Staphylococcus aureus CCARM 3505 clinical isolate
Staphylococcus aureus [4] = test: Antibacterial activity against Staphylococcus aureus RN4220 after 24 hrs by broth microdilution method; conditions: RN4220, 24 h
Staphylococcus aureus [5] = test: Antibacterial activity against methicillin-resistant Staphylococcus aureus CCARM 3167 clinical isolate after 24 hrs by broth microdilution method; conditions: CCARM 3167, 24 h
Staphylococcus aureus [6] = test: Ratio of norfloxacin MIC to compound MIC for methicillin-resistant Staphylococcus aureus CCARM 3167 clinical isolate
Escherichia coli = test: Antibacterial activity against Escherichia coli CCARM 1356 after 24 hrs by broth microdilution method; conditions: CCARM 1356, 24 h
Staphylococcus aureus [7] = test: Ratio of norfloxacin MIC to compound MIC for methicillin-resistant Staphylococcus aureus CCARM 3506 clinical isolate
Staphylococcus aureus [8] = test: Antibacterial activity against Staphylococcus aureus KCTC 503 after 24 hrs by broth microdilution method; conditions: KCTC 503, 24 h
Staphylococcus aureus [9] = test: Antibacterial activity against quinolone-resistant Staphylococcus aureus CCARM 3505 clinical isolate after 24 hrs by broth microdilution method; conditions: CCARM 3505, 24 h
Staphylococcus aureus [10] = test: Antibacterial activity against methicillin-resistant Staphylococcus aureus CCARM 3506 clinical isolate after 24 hrs by broth microdilution method; conditions: CCARM 3506, 24 h
Staphylococcus aureus [11] = test: Ratio of norfloxacin MIC to compound MIC for quinolone-resistant Staphylococcus aureus CCARM 3519 clinical isolate

Row | Compound | MIC (Staphylococcus aureus [1]) | MIC (Staphylococcus aureus [2]) | Ratio (Staphylococcus aureus [3]) | MIC (Staphylococcus aureus [4]) | MIC (Staphylococcus aureus [5]) | Ratio (Staphylococcus aureus [6]) | MIC (Escherichia coli) | Ratio (Staphylococcus aureus [7]) | MIC (Staphylococcus aureus [8]) | MIC (Staphylococcus aureus [9]) | MIC (Staphylococcus aureus [10]) | Ratio (Staphylococcus aureus [11])
1 | O=C(/C=C/c1ccc(/C=C2\SC(=S)N([C@@H](Cc3ccccc3)C(=O)O)C2=O)cc1)c1cccc(Cl)c1 | 16 µg/mL (≈ 30 µM) | 8 µg/mL (≈ 15 µM) | 2 | 2 µg/mL (≈ 3.74 µM) | 2 µg/mL (≈ 3.74 µM) | 2 | > 64 µg/mL | 2 | 16 µg/mL (≈ 30 µM) | 8 µg/mL (≈ 15 µM) | 4 µg/mL (≈ 7.49 µM) | 2
2 | O=C(O)[C@H](Cc1ccccc1)N1C(=O)/C(=C\c2ccc(OCc3ccc(Br)cc3)cc2)SC1=S | 8 µg/mL (≈ 14.4 µM) | 8 µg/mL (≈ 14.4 µM) | 2 | 2 µg/mL (≈ 3.61 µM) | 4 µg/mL (≈ 7.21 µM) | 2 | > 64 µg/mL | 2 | 8 µg/mL (≈ 14.4 µM) | 8 µg/mL (≈ 14.4 µM) | 8 µg/mL (≈ 14.4 µM) | 2
3 | Cc1ccc(COc2ccc(/C=C3\SC(=S)N([C@@H](Cc4ccccc4)C(=O)O)C3=O)cc2)cc1 | 8 µg/mL (≈ 16.3 µM) | 8 µg/mL (≈ 16.3 µM) | 2 | 4 µg/mL (≈ 8.17 µM) | 4 µg/mL (≈ 8.17 µM) | 2 | > 64 µg/mL | 2 | 16 µg/mL (≈ 32.7 µM) | 8 µg/mL (≈ 16.3 µM) | 8 µg/mL (≈ 16.3 µM) | 2
4 | COc1ccccc1C(=O)/C=C/c1ccc(/C=C2\SC(=S)N([C@@H](Cc3ccccc3)C(=O)O)C2=O)cc1 | 16 µg/mL (≈ 30.2 µM) | 16 µg/mL (≈ 30.2 µM) | 2 | 8 µg/mL (≈ 15.1 µM) | 8 µg/mL (≈ 15.1 µM) | 2 | > 64 µg/mL | 2 | 16 µg/mL (≈ 30.2 µM) | 4 µg/mL (≈ 7.55 µM) | 8 µg/mL (≈ 15.1 µM) | 2
5 | O=C(O)[C@H](Cc1ccccc1)N1C(=O)/C(=C\c2ccc(OCc3ccc(Cl)cc3Cl)cc2)SC1=S | 8 µg/mL (≈ 14.7 µM) | 8 µg/mL (≈ 14.7 µM) | 2 | 2 µg/mL (≈ 3.67 µM) | 8 µg/mL (≈ 14.7 µM) | 2 | > 64 µg/mL | 2 | 8 µg/mL (≈ 14.7 µM) | 8 µg/mL (≈ 14.7 µM) | 16 µg/mL (≈ 29.4 µM) | 2
6 | O=C(/C=C/c1ccc(/C=C2\SC(=S)N([C@@H](Cc3ccccc3)C(=O)O)C2=O)cc1)c1ccc(Cl)cc1 | 8 µg/mL (≈ 15 µM) | 4 µg/mL (≈ 7.49 µM) | 2 | 2 µg/mL (≈ 3.74 µM) | 2 µg/mL (≈ 3.74 µM) | 2 | > 64 µg/mL | 2 | 8 µg/mL (≈ 15 µM) | 4 µg/mL (≈ 7.49 µM) | 4 µg/mL (≈ 7.49 µM) | 2
7 | O=C(/C=C/c1ccc(/C=C2\SC(=S)N([C@@H](Cc3ccccc3)C(=O)O)C2=O)cc1)c1ccc(Cl)cc1Cl | 16 µg/mL (≈ 28.1 µM) | 16 µg/mL (≈ 28.1 µM) | 2 | 4 µg/mL (≈ 7.04 µM) | 4 µg/mL (≈ 7.04 µM) | 2 | > 64 µg/mL | 2 | 16 µg/mL (≈ 28.1 µM) | 4 µg/mL (≈ 7.04 µM) | 4 µg/mL (≈ 7.04 µM) | 2
8 | O=C(/C=C/c1ccc(/C=C2\SC(=S)N([C@@H](Cc3ccccc3)C(=O)O)C2=O)cc1)c1ccc(Br)cc1 | 4 µg/mL (≈ 6.91 µM) | 2 µg/mL (≈ 3.46 µM) | 2 | 2 µg/mL (≈ 3.46 µM) | 2 µg/mL (≈ 3.46 µM) | 2 | > 64 µg/mL | 2 | 4 µg/mL (≈ 6.91 µM) | 8 µg/mL (≈ 13.8 µM) | 2 µg/mL (≈ 3.46 µM) | 2
9 | O=C(O)[C@H](Cc1ccccc1)N1C(=O)/C(=C\c2ccc(OCc3ccc(F)cc3)cc2)SC1=S | 8 µg/mL (≈ 16.2 µM) | 8 µg/mL (≈ 16.2 µM) | 2 | 4 µg/mL (≈ 8.1 µM) | 8 µg/mL (≈ 16.2 µM) | 2 | > 64 µg/mL | 2 | 8 µg/mL (≈ 16.2 µM) | 8 µg/mL (≈ 16.2 µM) | 8 µg/mL (≈ 16.2 µM) | 2
10 | Cc1ccc(C(=O)/C=C/c2ccc(/C=C3\SC(=S)N([C@@H](Cc4ccccc4)C(=O)O)C3=O)cc2)cc1 | 8 µg/mL (≈ 15.6 µM) | 2 µg/mL (≈ 3.89 µM) | 2 | 2 µg/mL (≈ 3.89 µM) | 2 µg/mL (≈ 3.89 µM) | 2 | > 64 µg/mL | 2 | 8 µg/mL (≈ 15.6 µM) | 8 µg/mL (≈ 15.6 µM) | 2 µg/mL (≈ 3.89 µM) | 2
11 | COc1ccc(C(=O)/C=C/c2ccc(/C=C3\SC(=S)N([C@@H](Cc4ccccc4)C(=O)O)C3=O)cc2)cc1 | 16 µg/mL (≈ 30.2 µM) | 4 µg/mL (≈ 7.55 µM) | 2 | 4 µg/mL (≈ 7.55 µM) | 4 µg/mL (≈ 7.55 µM) | 2 | > 64 µg/mL | 2 | 16 µg/mL (≈ 30.2 µM) | 4 µg/mL (≈ 7.55 µM) | 4 µg/mL (≈ 7.55 µM) | 2
